According to patent publication US11738091B2, “Method for terminating cancer cells with an azole-based compound” (Imam Abdulrahman Bin Faisal University, priority 2019, dated 2023):

What was measured:
[1] = test system: HCT-116 cells; experiment: MTT assay of cancer cell viability; conditions: for attenuating cancer cells proliferation (in words) / effect on cancer cell survivability (in words) / comparison among the five conjugates in decreasing cancer cells proliferation: HCT-116; for dose dependence of effect on cancer cells viability: HCT-116, MTT staining; for comparison among the five conjugates in decreasing cancer cells proliferation: versus Conj. 1, Conj. 2 and Conj. 5
Protocol: CANCER CELL TREATMENTS: Human colorectal carcinoma cells (HCT-116) cells were grown according to a method described in Khan, F. A.; Akhtar, S.; Almohazey, D.; Alomari, M.; Almofty, S. A.; Eliassari, A. “Fluorescent magnetic submicronic polymer (FMSP) nanoparticles induce cell death in human colorectal carcinoma cells” Artif Artif. Cells, Nanomed., Biotechnol. 2018, (doi: 10.1080/21691401.2018.1491476). HCT-116 cells were grown in Dulbecco Modified Eagle Medium (DMEM), 10% fetal bovine serum, L-glutamine, selenium chloride, penicillin, and streptomycin. The cells were cultured in a CO2 incubator (Heracell 150i, Thermo-scientific, USA) at 37° C. under 5% CO2 for 48 to 72 hours. Confluenced cells were seeded into 96-well cell plates and, once the cells became 80% confluenced, the cancer cells were treated with different concentrations ([…]) of Conj. 1, Conj. 2, Conj. 3, Conj. 4, Conj. 5 respectively. […] Each sample was taken in triplicate to obtain a statistical analysis.
CANCER CELLS VIABILITY BY MTT ASSAY: To examine effect of Conj. 1, Conj. 2, Conj. 3, Conj. 4, Conj. 5 on cancer cells, a 3-(4,5-dimethylthiazol-2-yl)-2,5-diphenyltetrazolium bromide (MTT) assay was conducted on the cells. The cancer cells were seeded at 6×10^4 cells/mL concentration in 96-well culture plates containing DMEM, 10% Fetal bovine serum, penicillin, and streptomycin and were incubated in CO2 incubator until the cells were 80% confluenced. The cancer cells were then treated with Conj. 1, Conj. 2, Conj. 3, Conj. 4, Conj. 5 at concentrations of 1.3, 3.26, and 6.5 mg/mL, whereby no conjugate was added in the control groups. A 5.0 mg/mL MTT solution was added into each well, and the cells were again incubated for 4 hours in the CO2 incubator and finally media was changed with the addition of DMSO. The samples were then measured using an ELISA plate reader (Biotek Instruments, USA) at wavelength 570 nm.
The following formula was used to calculate percentage of cell viability: % of Cell viability=[Optical density (O.D) of Conj. 1, Conj. 2, Conj. 3, Conj. 4, or Conj. 5 cells]/[Optical density (O.D) of control cells]×100.
1, Conj. 2, Conj. 3, Conj. 4, Conj. 5 treated groups were calculated. All statistical analyses were completed with GraphPad Prism 6 (GraphPad Software). The difference between control and Conj. 1, Conj. 2, Conj. 3, Conj. 4, Conj. 5 groups by a one-way ANOVA test (*p<0.05, **p<0.01; ***p<0.001) was taken as statistically significant.

[2] = test system: HCT-116 cells; experiment: Cancer cell morphology by inverted microscope; format: cell-based, human; conditions: 48 hours, 200x magnification
From the text: Cells, Nanomed., Biotechnol. 2018, (doi: 10.1080/21691401.2018.1491476). […] 1, Conj. 2, Conj. 3, Conj. 4, Conj. 5 respectively.
CANCER CELL MORPHOLOGY: After the treating the HTC-116 cells with Conj. 1, Conj. 2, Conj. 3, Conj. 4, Conj. 5, the cells were observed using an inverted microscope (TS100F Eclipse, Nikon, Japan) to evaluate the anatomical and morphological changes.

Substance | attenuating cancer cells proliferation (in words) [1] | effect on cancer cell survivability (in words) [1] | dose dependence of effect on cancer cells viability [1] | comparison among the five conjugates in decreasing cancer cells proliferation [1] | cancer cell morphology ([2]; HCT-116, 1.3 mg/mL) | cancer cell morphology ([2]; HCT-116, 3.26 mg/mL) | cancer cell morphology ([2]; HCT-116, 6.5 mg/mL)
SiO2-3GPS-Atet [Conj. 3] | highly effective | profound effects | dose dependent effects | more effective | significant levels of nucleus condensation and nuclear augmentation | nuclear condensation and augmentation of cancer cells | significant loss of cell population
SiO2-3GPS-Atri [Conj. 2] | highly effective | profound effects | dose dependent effects | – | strong nucleus condensation and nuclear augmentation | further nucleus condensation and augmentation | significant loss of cell population
SiO2-3GPS-Btri [Conj. 4] | highly effective | profound effects | dose dependent effects | more effective | disintegration of cancer cell bodies | strong nuclear condensation and augmentation | strong nuclear condensation and augmentation
SiO2-3GPS-Imi [Conj. 5] | highly effective | profound effects | dose dependent effects | – | high levels of nucleus condensation and nuclear augmentation | strong nuclear condensation and augmentation and the beginning of cell membrane disruption and cell death | significant loss of cell population
SiO2-3GPS-Tri [Conj. 1] | highly effective | profound effects | dose dependent effects | – | strong nucleus condensation and nuclear augmentation | further nucleus condensation and augmentation | significant loss of cell population
